Like-named read-outs stand apart in the source and are kept apart here.
How the values were obtained:
[1] = target: T1, full-length WRN exonuclease activity (Homo sapiens, UniProt Q14191); assay: WRN exonuclease activity on radiolabeled FORKR DNA substrate; type: biochemical; settings: WRN 20 nM, FORKR 1 nM; for Inhibition of WRN exonuclease activity: same concentration range as activity against WRN helicase
T1 construct: Full length recombinant WRN [18], BLM [19], and FANCJ [20] proteins were purified from insect cells; made in house; host or cells: insect cells
T1 sequence (Q14191 whole entry): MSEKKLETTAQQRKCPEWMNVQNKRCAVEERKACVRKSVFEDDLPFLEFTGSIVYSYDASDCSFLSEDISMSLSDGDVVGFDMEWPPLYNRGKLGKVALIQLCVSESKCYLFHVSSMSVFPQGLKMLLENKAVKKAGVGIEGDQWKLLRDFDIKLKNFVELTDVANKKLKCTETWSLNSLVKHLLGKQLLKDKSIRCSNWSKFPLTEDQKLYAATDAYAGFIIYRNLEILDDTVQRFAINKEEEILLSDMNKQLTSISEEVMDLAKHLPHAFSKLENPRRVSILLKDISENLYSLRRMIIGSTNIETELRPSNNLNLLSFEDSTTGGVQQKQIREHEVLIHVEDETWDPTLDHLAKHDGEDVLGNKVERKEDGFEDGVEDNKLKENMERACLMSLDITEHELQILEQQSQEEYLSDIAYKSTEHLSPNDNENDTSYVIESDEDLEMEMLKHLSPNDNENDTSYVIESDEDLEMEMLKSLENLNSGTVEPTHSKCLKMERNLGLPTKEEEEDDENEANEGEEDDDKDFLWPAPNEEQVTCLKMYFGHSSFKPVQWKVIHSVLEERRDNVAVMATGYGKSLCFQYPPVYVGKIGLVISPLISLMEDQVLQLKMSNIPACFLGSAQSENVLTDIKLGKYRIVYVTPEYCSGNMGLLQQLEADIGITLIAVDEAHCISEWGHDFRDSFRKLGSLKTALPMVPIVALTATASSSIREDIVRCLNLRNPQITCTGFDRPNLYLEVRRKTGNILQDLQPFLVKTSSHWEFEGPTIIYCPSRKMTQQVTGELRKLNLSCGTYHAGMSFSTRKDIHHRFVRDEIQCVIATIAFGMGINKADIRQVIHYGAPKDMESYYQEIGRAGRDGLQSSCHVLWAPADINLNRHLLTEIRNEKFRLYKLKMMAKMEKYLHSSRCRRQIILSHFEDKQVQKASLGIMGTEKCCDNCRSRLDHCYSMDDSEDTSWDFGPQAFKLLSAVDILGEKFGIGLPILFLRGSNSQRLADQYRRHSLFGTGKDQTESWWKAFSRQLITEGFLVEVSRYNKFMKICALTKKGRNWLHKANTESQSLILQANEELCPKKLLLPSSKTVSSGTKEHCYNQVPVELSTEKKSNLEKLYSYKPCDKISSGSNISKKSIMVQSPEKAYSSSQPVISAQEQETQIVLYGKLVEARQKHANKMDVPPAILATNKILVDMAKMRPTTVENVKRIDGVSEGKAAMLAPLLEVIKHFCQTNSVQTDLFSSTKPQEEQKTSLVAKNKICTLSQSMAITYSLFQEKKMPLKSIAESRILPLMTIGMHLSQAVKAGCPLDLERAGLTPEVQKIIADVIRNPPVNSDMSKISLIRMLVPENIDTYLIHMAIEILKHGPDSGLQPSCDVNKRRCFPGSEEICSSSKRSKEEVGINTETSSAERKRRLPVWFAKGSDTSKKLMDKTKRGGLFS
Protocol: Fig 8 Specificity of selected compounds for inhibiting full-length WRN helicase activity. […] (B) Gel image of full-length WRN (20 nM) exonuclease activity on the radiolabeled FORKR DNA substrate (1 nM) in the presence of increasing concentrations of NCGC00029283-03, NCGC00063279-03 and NCGC00357377-01 (0–200 μM).
Three compounds identified from the cherry-picked set were tested for their effects on WRN exonuclease activity (20 nM) on the FORKR DNA substrate (1 nM) as well as DNA unwinding by full-length BLM (0.1 nM) and FANCJ (5 nM) helicases, which belong to the same Superfamily 2 as WRN [25], to assess their specificity for inhibition of WRN-catalyzed unwinding of the FORKR DNA substrate (0.5 nM). […] Nonetheless, these two compounds were also further tested in cell-based assays to assess their effects on proliferation.

full-length WRN helicase [2] = target: T2, full-length WRN helicase (Homo sapiens, UniProt Q14191); assay: Radiometric helicase inhibitor assay, full-length WRN unwinding of FORKR DNA substrate; type: biochemical; settings: FORKR 0.5 nM; for remaining activity at 50 µM: 50 μM compound, read-out: % Control WRN Helicase Activity;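 on all read-outs here: WRN preincubated with compound 15 min at room temperature, then unwinding run 15 min at 37 °C with 2 mM ATP, relative to WRN unwinding without compound (100%)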
T2 construct: Full length recombinant WRN [18], BLM [19], and FANCJ [20] proteins were purified from insect cells; made in house; host or cells: insect cells
T2 sequence (Q14191 whole entry): as above
Protocol: Fifteen μL of reaction buffer was added to a microcentrifuge tube followed by the addition of 1 μL of selected compounds (0.5–100 μM final concentration) or DMSO. One μL of WRN (full length), RECQ1, FANCJ, BLM or control was added to each reaction and incubated at room temperature for 15 min. Three μL of substrate (0.5 nM FORKR and 2 mM ATP final concentrations) were added to all reactions which were incubated at 37°C for 15 min. Reactions were stopped with the addition of 20 μL of 2X STOP dye containing EDTA, glycerol, bromphenol blue and xylene cyanol. Samples were electrophoresed for 1.5 hr at 200 V on a 12% non-denaturing PAGE gel in 1X TBE Buffer.
The compounds were tested at a single concentration of 50 μM in the radiometric helicase assay with full-length recombinant WRN protein (1 nM) and the FORKR DNA substrate (0.5 nM) as described in the Materials and Methods section.
For each compound, we performed titrations over a wide range of concentrations with a fixed concentration of full-length WRN protein (1 nM), and quantitated unwinding as a percentage of full-length WRN unwinding of the FORKR DNA substrate (0.5 nM) in the absence of compound (Fig 6A and 6B, S3 Fig). […] In addition to determining an IC50 value for each compound, we also conducted helicase assays to determine the reversibility of inhibition by each compound tested. […] The reaction was diluted 100-fold with the addition of DNA substrate (0.5 nM final concentration) and ATP (2 mM final concentration) and unwinding was measured (Fig 7A–7D, S4 Fig). Inhibition was either classified as reversible, partially reversible, minimally reversible, or irreversible based on the ability of helicase activity to recover after dilution of the compound 100-fold.

U2-OS cells = assay: U2-OS cell proliferation assay (WST-1); type: cell-based, human; settings: 100 μM; for Effect on proliferation of U2-OS cells: Day 0 through Day 3
Protocol: WRN inhibitors were diluted in DMSO to a concentration 100-fold higher than their final concentrations. U2-OS cells in culture were counted, spun down and resuspended to 35,000 cells/mL in DMEM with 10% FBS and Pen/Strep antibiotic. For each cell condition, 15 μL of DMSO or inhibitor was added to 1.5 ml of U2-OS cells in DMEM or DMEM alone. One hundred μL of each cell condition was plated in triplicate on each of four 96-well plates representing days 0–3. Ten μL of WST-1 cell proliferation reagent (Roche) was added to the day 0 plate and readings were taken 2 hr later using a plate reader set to 450 nm. WST-1 cell proliferation reagent was added to plates on days 1–3 and readings were taken after 2 hr incubation. Percent cell proliferation was normalized to cells in the presence of DMSO with the background OD450 of DMEM with each drug subtracted out.
Fig 9 Effects of WRN helicase inhibitors on cancer cell proliferation. (A) Cell proliferation of HeLa 1.2.11 cells treated with 50 μM NCGC00029283-03, NCGC00063279-03, NCGC00357377-01 and NSC 617145 (positive control) or vehicle (DMSO) on Day 0 and Day 3 as measured using the WST-1 cell proliferation reagent. (B) Cell proliferation of U2-OS cells treated with increasing amounts of NCGC00029283-03 (0–100 μM) from Day 0 through Day 3. (C) Cell proliferation of U2-OS cells treated with increasing amounts of NCGC00063279-03 (0–100 μM) from Day 0 through Day 3. (D) Cell proliferation of U2-OS cells treated with 100 μM NCGC00357377-01 from Day 0 through Day 3.
HeLa cells are characterized by reduced expression of wild-type p53 as well as an inability to increase p53 levels after DNA damage due to human papillomavirus (HPV) elements. This raised the possibility that p53 status may play a role in the ability of small molecule WRN helicase inhibitors to affect cell proliferation. In addition, HeLa 1.2.11 cells are characterized by relatively long telomeres and use telomerase to maintain telomere length. Since WRN is implicated in the Alternative Lengthening of Telomeres (ALT) pathway, cells that are dependent on the ALT pathway may be more sensitive to WRN inhibitors as well. To address this possibility, we treated U2-OS osteosarcoma cells (which express wild-type p53 and utilize the ALT pathway for keeping very long telomeres) with all three compounds. In this case, we observed a 50% reduction in U2-OS cell proliferation two days after initial exposure to NCGC00029283-03 (100 μM).

full-length WRN helicase [3] = target: T2, full-length WRN helicase; assay: Radiometric helicase inhibitor reversibility assay (100-fold dilution); type: biochemical; parameters: key to Reversibility: (-) = irreversible; (+) = minimally reversible; (++) = partially reversible; (+++) = reversible; settings: for Reversibility: WRN 100 nM preincubated at 10-fold IC50, diluted 100-fold, unwinding 0-16 min; for Reversibility of inhibition (in words): full-length WRN
Protocol: WRN (full length, 100 nM concentration) was incubated with each small molecule inhibitor at a concentration 10-fold higher than the IC50 for that inhibitor, in a 10 μL reaction at room temperature. 1.5 μL of this reaction was added to 148.5 μL of reaction salts with 2 mM ATP, 0.5 nM FORKR reducing the full length WRN concentration to 1 nM and the drug concentration to 10-fold less than its IC50. Reactions were placed at 37°C and 20 μL of reaction were removed at specific intervals (0–16 min) and quenched with 20 μL of 2X STOP dye containing EDTA, glycerol, bromphenol blue and xylene cyanol. Samples were electrophoresed for 1.5 hr at 200 V on a 12% non-denaturing PAGE gel in 1X TBE Buffer.
Eighteen compounds were selected based on potency of inhibition in both the screening and radiometric assays, and exclusion of compounds with undesired chemical features. For each compound, we performed titrations over a wide range of concentrations with a fixed concentration of full-length WRN protein (1 nM), and quantitated unwinding as a percentage of full-length WRN unwinding of the FORKR DNA substrate (0.5 nM) in the absence of compound (Fig 6A and 6B, S3 Fig). […] In addition to determining an IC50 value for each compound, we also conducted helicase assays to determine the reversibility of inhibition by each compound tested. Details of the assay can be found in the Materials and Methods section, but briefly 100 nM WRN was incubated with each compound at a concentration 10-fold higher than its IC50 value. The reaction was diluted 100-fold with the addition of DNA substrate (0.5 nM final concentration) and ATP (2 mM final concentration) and unwinding was measured (Fig 7A–7D, S4 Fig). Inhibition was either classified as reversible, partially reversible, minimally reversible, or irreversible based on the ability of helicase activity to recover after dilution of the compound 100-fold. Table 2 summarizes the IC50 values and reversibility for each compound and includes IC50 values obtained from the screens for comparison.

[4] = radiometric assay, full-length WRN 1 nM, compound 0-100 μM, read-out: IC50
[5] = resynthesized or repurified compounds, full-length WRN, read-out: IC50 (μM): WRN

Row | Structure (SMILES) | Inhibition of WRN exonuclease activity at 200 μM [1] | Inhibition of WRN exonuclease activity [1] | remaining activity at 50 µM (full-length WRN helicase [2]; full-length WRN 1 nM) [%] | IC50 (full-length WRN helicase [2]; [4]) [µM] | IC50 (full-length WRN helicase [2]; [5]) [µM] | Effect on proliferation of U2-OS cells (U2-OS cells; listed as NCGC00357377) | Effect on proliferation of U2-OS cells (U2-OS cells; listed as NCGC00357377-01) | Reversibility (full-length WRN helicase [3]) | Reduction in U2-OS cell proliferation (U2-OS cells; after three days exposure) [%] | Reversibility of inhibition (in words) (full-length WRN helicase [3]) | Effect on proliferation of U2-OS cells (U2-OS cells) | Reduction in U2-OS cell proliferation (U2-OS cells; two days after initial exposure) [%]
1 | Cc1ccc(-c2csc(NS(=O)(=O)c3cccc(F)c3)n2)o1 [MLS002251300-02] | some ability to inhibit | unable to inhibit | 1 | 4 | 5 ± 1.4 | did not reduce cell proliferation | did not have any effect | ++ | – | – | – | –
2 | COc1ccc2nc(O)c(-c3noc(-c4ccccc4)n3)cc2c1 [NCGC00063279-02] | some ability to inhibit | unable to inhibit | 18 | 12 | 13 ± 3.6 | – | – | +++ | 40 | at least partially reversible | – | –
3 | COc1ccc2nc(O)c(-c3noc(-c4ccc(F)cc4)n3)cc2c1 [NCGC00029283-02] | some ability to inhibit | unable to inhibit | 6 | 3 | 2.3 ± 0.6 | – | – | ++ | – | at least partially reversible | also detectable after three days | 50
